Measured values published in US11046699B2, “Pyrazolo-pyrimidin-amino-cycloalkyl compounds and their therapeutic uses” (RAPT THERAPEUTICS, INC., priority 2018, dated 2021).

Molecular target: GCN2 (Homo sapiens, UniProt Q9P2K8)
Assay: GCN2 enzymatic endpoint assay: phosphorylation of GFP-eIF2α measured by TR-FRET (Lanthascreen)
Type: biochemical
Details: GCN2 biochemical IC50; 4 nM GCN2, 2 μM ATP, 80 nM GFP-eIF2α, 90 min RT; read-out: GCN2 activity
Outline: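 Endpoint GCN2 reaction with low ATP (2 μM) and 80 nM GFP-eIF2α, room temperature, 90 minutes. Detection mix with EDTA and Tb-labelled antibody; 520 nm/495 nm emission ratio reported.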

GCN2, sequence (Q9P2K8 whole entry): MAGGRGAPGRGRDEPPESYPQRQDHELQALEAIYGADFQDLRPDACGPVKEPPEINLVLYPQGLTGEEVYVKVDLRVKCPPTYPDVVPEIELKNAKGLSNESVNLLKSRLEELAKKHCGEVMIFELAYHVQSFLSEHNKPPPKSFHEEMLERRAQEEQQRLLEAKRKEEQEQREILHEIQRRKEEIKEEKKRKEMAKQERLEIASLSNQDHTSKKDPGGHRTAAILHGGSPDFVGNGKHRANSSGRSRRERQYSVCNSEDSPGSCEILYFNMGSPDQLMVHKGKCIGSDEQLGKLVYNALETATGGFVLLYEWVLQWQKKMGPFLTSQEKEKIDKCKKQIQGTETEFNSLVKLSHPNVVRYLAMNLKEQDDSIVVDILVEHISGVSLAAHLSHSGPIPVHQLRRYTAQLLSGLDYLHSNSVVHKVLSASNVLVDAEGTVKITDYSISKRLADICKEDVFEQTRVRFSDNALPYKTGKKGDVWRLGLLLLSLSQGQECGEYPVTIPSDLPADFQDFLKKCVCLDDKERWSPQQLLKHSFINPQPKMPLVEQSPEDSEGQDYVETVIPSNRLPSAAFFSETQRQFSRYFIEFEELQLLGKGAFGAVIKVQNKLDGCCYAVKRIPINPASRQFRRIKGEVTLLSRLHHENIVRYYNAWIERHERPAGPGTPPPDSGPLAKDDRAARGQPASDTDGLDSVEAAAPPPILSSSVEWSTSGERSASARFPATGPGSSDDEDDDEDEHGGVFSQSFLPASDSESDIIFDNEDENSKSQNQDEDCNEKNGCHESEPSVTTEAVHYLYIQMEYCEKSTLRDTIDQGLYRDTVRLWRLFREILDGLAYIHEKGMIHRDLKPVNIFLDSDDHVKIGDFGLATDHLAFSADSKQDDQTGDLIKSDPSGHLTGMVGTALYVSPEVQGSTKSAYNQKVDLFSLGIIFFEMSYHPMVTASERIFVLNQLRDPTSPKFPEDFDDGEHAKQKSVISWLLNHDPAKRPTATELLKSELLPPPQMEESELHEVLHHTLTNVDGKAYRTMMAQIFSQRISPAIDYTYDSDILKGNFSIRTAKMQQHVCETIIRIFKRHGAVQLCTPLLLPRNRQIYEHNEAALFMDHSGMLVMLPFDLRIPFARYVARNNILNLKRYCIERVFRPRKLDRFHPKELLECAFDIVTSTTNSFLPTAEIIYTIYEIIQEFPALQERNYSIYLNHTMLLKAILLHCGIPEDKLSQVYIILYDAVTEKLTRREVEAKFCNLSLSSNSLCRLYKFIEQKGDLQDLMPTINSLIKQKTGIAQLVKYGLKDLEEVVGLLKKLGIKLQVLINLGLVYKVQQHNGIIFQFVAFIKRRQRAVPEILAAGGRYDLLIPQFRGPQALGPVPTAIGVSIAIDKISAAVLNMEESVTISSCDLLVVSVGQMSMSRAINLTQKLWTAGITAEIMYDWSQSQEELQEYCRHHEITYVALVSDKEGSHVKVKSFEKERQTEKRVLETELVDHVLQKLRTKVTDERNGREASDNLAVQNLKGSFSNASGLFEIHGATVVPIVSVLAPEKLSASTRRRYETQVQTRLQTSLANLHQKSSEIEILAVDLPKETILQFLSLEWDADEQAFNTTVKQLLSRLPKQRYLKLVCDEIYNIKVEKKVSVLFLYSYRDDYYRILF

| IC50 [nM] | Compound |
| --- | --- |
| 25 to 200 | CNC(=O)[C@]1(C)CC[C@@H](Nc2ncc3c(Br)nn(-c4cc(C#N)c5c(c4)CCO5)c3n2)C1 [Example 50, (1R,3R)-3-((3-bromo-1-(7-cyano-2,3-dihydrobenzofuran-5-yl)-lH-pyrazolo[3,4-d]pyrimidin-6-yl)amino)-N,1-dimethylcyclopentane-1-carboxamide; 2,2,2-trifluoroacetic acid] |
| 25 to 200 | NC(=O)[C@@H]1CC[C@@H](Nc2ncc3c(Br)nn(-c4cc(F)c5ncccc5c4)c3n2)C1 [Example 12, (1R,3R)-3-((3-bromo-1-(8-fluoroquinolin-6-yl)-1H-pyrazolo[3,4-d]pyrimidin-6-yl)amino)cyclopentane-1-carboxamide] |
| 25 to 200 | CNC(=O)[C@]1(C)CC[C@@H](Nc2ncc3c(Br)nn(-c4ccc(-c5ncco5)c(CCN(C)C)c4)c3n2)C1 [Example 62, (1R,3R)-3-((3-bromo-1-(3-(2-(dimethylamino)ethyl)-4-(oxazol-2-yl)phenyl)-1H-pyrazolo[3,4-d]pyrimidin-6-yl)amino)-N,1-dimethylcyclopentane-1-carboxamide; 2,2,2-trifluoroacetic acid] |

Same assay, conditions: tested as described in Example 77; compound and/or hydrochloride, dihydrochloride or trifluoroacetic acid salt; read-out: IC 50 Activity

| IC50 [nM] | Compound |
| --- | --- |
| 25 to 200 | O=C(NCCO)[C@@H]1CC[C@@H](Nc2ncc3c(Br)nn(-c4cc(F)c5ncccc5c4)c3n2)C1 [(1R,3R)-3-((3-bromo-1-(8-fluoroquinolin-6-yl)-1H-pyrazolo[3,4-d]pyrimidin-6-yl)amino)-N-(2-hydroxyethyl)cyclopentane-1-carboxamide] |
| 500 to 1000 | COCCNC(=O)[C@@]1(C)CC[C@@H](Nc2ncc3c(Br)nn(-c4ccc5ncccc5c4)c3n2)C1 [(1S,3R)-3-((3-bromo-1-(quinolin-6-yl)-1H-pyrazolo[3,4-d]pyrimidin-6-yl)amino)-N-(2-methoxyethyl)-1-methylcyclopentane-1-carboxamide] |
| < 25 | CNC(=O)[C@@H]1CC[C@@H](Nc2ncc3c(I)nn(-c4cc(F)c5ncccc5c4)c3n2)C1 [(1R,3R)-3-[[1-(8-fluoro-6-quinolyl)-3-iodo-pyrazolo[3,4-d]pyrimidin-6-yl]amino]-N-methyl-cyclopentanecarboxamide] |
| 25 to 200 | C[C@@H]1CN(C(=O)C2(C)CC[C@@H](Nc3ncc4c(Br)nn(-c5cc(F)c6ncccc6c5)c4n3)C2)C[C@@H](C)O1 (stereo partly drawn) [[(3R)-3-[[3-bromo-1-(8-fluoro-6-quinolyl)pyrazolo[3,4-d]pyrimidin-6-yl]amino]-1-methyl-cyclopentyl]-[(2R,6R)-2,6-dimethylmorpholin-4-yl]methanone] |
| 25 to 200 | CNC(=O)[C@]1(C)CC[C@@H](Nc2ncc3c(Br)nn(-c4ccc(-c5nnc(C)s5)c(CCNCC(F)(F)F)c4)c3n2)C1 [(1R,3R)-3-[[3-bromo-1-[4-(5-methyl-1,3,4-thiadiazol-2-yl)-3-[2-(2,2,2-trifluoroethylamino)ethyl]phenyl]pyrazolo[3,4-d]pyrimidin-6-yl]amino]-N,1-dimethyl-cyclopentanecarboxamide] |
| 25 to 200 | N#Cc1cc(-n2nc(Br)c3cnc(N[C@@H]4CC[C@H](C(=O)NCC5(F)CNC5)C4)nc32)cc2cccnc12 [(1S,3R)-3-((3-bromo-1-(8-cyanoquinolin-6-yl)-1H-pyrazolo[3,4-d]pyrimidin-6-yl)amino)-N-((3-fluoroazetidin-3-yl)methyl)cyclo-pentane-1-carboxamide] |
| 200 to 500 | O=C(NC[C@@H]1COCCN1)[C@@H]1CC[C@@H](Nc2ncc3c(Br)nn(-c4ccc5ncccc5c4)c3n2)C1 [(1R,3R)-3-((3-bromo-1-(quinolin-6-yl)-1H-pyrazolo[3,4-d]pyrimidin-6-yl)amino)-N-(((R)-morpholin-3-yl)methyl)cyclopentane-1-carboxamide] |
| 25 to 200 | CNC(=O)[C@]1(C)CC[C@@H](Nc2ncc3c(Br)nn(-c4ccc5c(c4)OC(C)(C)C(=O)N5C)c3n2)C1 [(1R,3R)-3-[[3-bromo-1-(2,2,4-trimethyl-3-oxo-1,4-benzoxazin-7-yl)pyrazolo [3,4-d]pyrimidin-6-yl]amino]-N,1-dimethyl-cyclopentanecarboxamide] |
| 25 to 200 | CNC(=O)[C@]1(C)CC[C@@H](Nc2ncc3c(Br)nn(-c4cc(NC(=O)CN)c5ncccc5c4)c3n2)C1 [(1R,3R)-3-[[1-[8-[(2-aminoacetyl)amino]-6-quinolyl]-3-bromo-pyrazolo[3,4-d]pyrimidin-6-yl]amino]-N,1-dimethyl-cyclopentanecarboxamide] |
| < 25 | CNC(=O)[C@]1(C)CC[C@@H](Nc2ncc3c(Br)nn(-c4cc(F)c5nc(C)ccc5c4)c3n2)C1 [(1R,3R)-3-[[3-bromo-1-(8-fluoro-2-methyl-6-quinolyl)pyrazolo[3,4-d]pyrimidin-6-yl]amino]-N,1-dimethyl-cyclopentane-carboxamide] |
| 25 to 200 | COCCNC(=O)[C@@H]1CC[C@@H](Nc2ncc3c(Br)nn(-c4ccc5ccncc5c4)c3n2)C1 [(1R,3R)-3-((3-bromo-1-(isoquinolin-7-yl)-1H-pyrazolo[3,4-d]pyrimidin-6-yl)amino)-N-(2-methoxyethyl)cyclopentane-1-carboxamide] |
| 25 to 200 | CNC(=O)[C@]1(C)CC[C@@H](Nc2ncc3c(Br)nn(-c4ccc5c(c4)n(C)c(=O)c(=O)n5C)c3n2)C1 [(1R,3R)-3-[[3-bromo-1-(1,4-dimethyl-2,3-dioxo-quinoxalin-6-yl)pyrazolo [3,4-d]pyrimidin-6-yl]amino]-N,1-dimethyl-cyclopentanecarboxamide] |
| < 25 | O=C(N[C@@H]1CCNC[C@@H]1F)[C@@H]1CC[C@@H](Nc2ncc3c(Br)nn(-c4cc(F)c5ncccc5c4)c3n2)C1 [(1R,3R)-3-((3-bromo-1-(8-fluoroquinolin-6-yl)-1H-pyrazolo[3,4-d]pyrimidin-6-yl)amino)-N-((3S,4R)-3-fluoropiperidin-4-yl)cyclo-pentane-1-carboxamide] |
| 25 to 200 | CNC(=O)[C@]1(C)CC[C@@H](Nc2ncc3c(Br)nn(-c4cc(C#N)cc(OC5CNC5)c4)c3n2)C1 [(1R,3R)-3-[[1-[3-(azetidin-3-yloxy)-5-cyano-phenyl]-3-bromo-pyrazolo[3,4-d]pyrimidin-6-yl]amino]-N,1-dimethyl-cyclopentanecarboxamide] |
| 25 to 200 | CNC(=O)[C@]1(C)CC[C@@H](Nc2ncc3c(Br)nn(-c4ccc5[nH]c(=O)ncc5c4)c3n2)C1 [(1R,3R)-3-[[3-bromo-1-(2-oxo-1H-quinazolin-6-yl)pyrazolo[3,4-d]pyrimidin-6-yl]amino]-N,1-dimethyl-cyclopentane-carboxamide; 2,2,2-trifluoroacetic acid] |
| 25 to 200 | N#Cc1cc(-n2nc(Br)c3cnc(N[C@@H]4CC[C@@H](C(=O)N5CCCC5)C4)nc32)cc2cccnc12 [6-(3-bromo-6-(((1R,3R)-3-(pyrrolidine-1-carbonyl)cyclopentyl)amino)-1H-pyrazolo [3,4-d]pyrimidin-1-yl)quinoline-8-carbonitrile] |
| 25 to 200 | CNC(=O)[C@]1(C)CC[C@@H](Nc2ncc3c(Br)nn(-c4ccc(-c5nnc(C)o5)c(F)c4)c3n2)C1 [(1R,3R)-3-[[3-bromo-1-[3-fluoro-4-(5-methyl-1,3,4-oxadiazol-2-yl)phenyl]pyrazolo[3,4-d]pyrimidin-6-yl]amino]-N,1-dimethyl-cyclopentanecarboxamide] |
| 25 to 200 | Cc1nnc(-c2ccc(-n3nc(Br)c4cnc(N[C@@H]5CC[C@@](C)(C(=O)O)C5)nc43)cc2CCN)s1 [(1R,3R)-3-[[1-[3-(2-aminoethyl)-4-(5-methyl-1,3,4-thiadiazol-2-yl)phenyl]-3-bromo-pyrazolo[3,4-d]pyrimidin-6-yl]amino]-1-methyl-cyclopentanecarboxylic acid] |
| 25 to 200 | CNC(=O)[C@@]1(COC)CC[C@@H](Nc2ncc3c(I)nn(-c4cc(F)c5ncccc5c4)c3n2)C1 [(1S,3R)-3-[[1-(8-fluoro-6-quinolyl)-3-iodo-pyrazolo[3,4-d]pyrimidin-6-yl]amino]-1-(methoxymethyl)-N-methyl-cyclopentane-carboxamide] |
| 25 to 200 | CNC(=O)[C@]1(C)CC[C@@H](Nc2ncc3c(Br)nn(-c4cc(C)c(C#N)c(C)c4)c3n2)C1 [(1R,3R)-3-[[3-bromo-1-(4-cyano-3,5-dimethyl-phenyl)pyrazolo[3,4-d]pyrimidin-6-yl]amino]-N,1-dimethyl-cyclopentanecarboxamide] |
| 25 to 200 | CCS(=O)(=O)N1Cc2cc(-n3nc(Br)c4cnc(N[C@@H]5CC[C@@](C)(C(=O)NC)C5)nc43)cnc2C1 [(1R,3R)-3-[[3-bromo-1-(6-ethylsulfonyl-5,7-dihydropyrrolo[3,4-b]pyridin-3-yl)pyrazolo[3,4-d]pyrimidin-6-yl]amino]-N,1-dimethyl-cyclopentanecarboxamide] |
| 25 to 200 | CNC(=O)[C@]1(C)CC[C@@H](Nc2ncc3c(Br)nn(-c4ccc5c(c4)C(C)(C)CO5)c3n2)C1 [(1R,3R)-3-[[3-bromo-1-(3,3-dimethyl-2H-benzofuran-5-yl)pyrazolo[3,4-d]pyrimidin-6-yl]amino]-N,1-dimethyl-cyclopentane-carboxamide] |
| 25 to 200 | CNC(=O)[C@]1(C)CC[C@@H](Nc2ncc3c(Br)nn(-c4cc(CNS(=O)(=O)C5COC5)c5nccnc5c4)c3n2)C1 [(1R,3R)-3-[[3-bromo-1-[8-[(oxetan-3-ylsulfonylamino)methyl]quinoxalin-6-yl]pyrazolo[3,4-d]pyrimidin-6-yl]amino]-N,1-dimethyl-cyclopentane-carboxamide] |
| 25 to 200 | CNC(=O)[C@@H]1CC[C@@H](Nc2ncc3c(Br)nn(-c4ccn5nccc5c4)c3n2)C1 [(1R,3R)-3-[(3-bromo-1-pyrazolo[1,5-a]pyridin-5-yl-pyrazolo[3,4-d]pyrimidin-6-yl)amino]-N-methyl-cyclopentane-carboxamide] |

| Compound | IC50 [nM] |
| --- | --- |
| Cc1nnc(-c2ccc(-n3nc(Br)c4cnc(N[C@@H]5CC[C@@](C)(C(=O)N6CCOCC6)C5)nc43)cc2CCC#N)s1 | 25 to 200 |
| CNC(=O)[C@]1(C)CC[C@@H](Nc2ncc3c(Br)nn(-c4cc(F)cc([C@H](C)N)c4)c3n2)C1 | 25 to 200 |
| C[C@H](N)c1cc(Cl)cc(-n2nc(Br)c3cnc(N[C@@H]4CC[C@@](C)(C(=O)N5CCP(C)(=O)CC5)C4)nc32)c1 | 25 to 200 |
